# Reference: patent US10765114B2, “4-amino-6-(pyridyl and 2-substitutedphenyl)-picolinates and 6-amino-2-(pyridyl and 2-substitutedphenyl)-pyrimidine-4-carboxylates and their use as herbicides” (Dow AgroSciences LLC, priority 2013, dated 2020)
# Tested on: Key Grass and Sedge Weeds as well as Grass Crops
# Assay: Post-Emergent Test II (Table 6)
# Type: in vivo
# Conditions: post-emergence, 336 h, DIGSA: crabgrass (Digitaria sanguinalis), 70 g ai/ha, 14 days after application, read-out: Visual Growth Reduction (%) 14 Days After Application DIGSA
# Procedure, shortened: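 Plants grown in a greenhouse (~15 h photoperiod, 23-29° C day) to first or second true leaf stage were sprayed post-emergence at 187 L/ha with compound in acetone/DMSO-based aqueous spray containing crop oil concentrate and surfactant, applied at a high rate plus ½× to 1/16× serial rates. Injury was scored visually 14 days later, 0-100% versus untreated plants.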
row,SMILES,pest or weed control at 70 g/ha [%]
1,"Cc1c(-c2cc(N)c(Cl)c(C(=O)O)n2)ccc(C(F)(F)F)c1F [Compound 61, 4-amino-3-chloro-6-(3-fluoro-2-methyl-4-(trifluoromethyl)phenyl)picolinic acid]",0 to 29

# Same assay, conditions: post-emergence, 336 h, DIGSA: crabgrass (Digitaria sanguinalis), 140 g ai/ha, 14 days after application, read-out: Visual Growth Reduction (%) 14 Days After Application DIGSA
row,SMILES,pest or weed control at 140 g/ha [%]
1,"Cc1c(-c2cc(N)c(Cl)c(C(=O)O)n2)ccc(C(F)(F)F)c1F [Compound 61, 4-amino-3-chloro-6-(3-fluoro-2-methyl-4-(trifluoromethyl)phenyl)picolinic acid]",0 to 29

# Same assay, conditions: post-emergence, 336 h, ECHSS, 70 g ai/ha, 14 days after application, read-out: Visual Growth Reduction (%) 14 Days After Application ECHSS
row,SMILES,pest or weed control at 70 g/ha [%]
1,"Cc1c(-c2cc(N)c(Cl)c(C(=O)O)n2)ccc(C(F)(F)F)c1F [Compound 61, 4-amino-3-chloro-6-(3-fluoro-2-methyl-4-(trifluoromethyl)phenyl)picolinic acid]",85 to 94

# Same assay, conditions: post-emergence, 336 h, ECHSS, 140 g ai/ha, 14 days after application, read-out: Visual Growth Reduction (%) 14 Days After Application ECHSS
row,SMILES,pest or weed control at 140 g/ha [%]
1,"Cc1c(-c2cc(N)c(Cl)c(C(=O)O)n2)ccc(C(F)(F)F)c1F [Compound 61, 4-amino-3-chloro-6-(3-fluoro-2-methyl-4-(trifluoromethyl)phenyl)picolinic acid]",85 to 94

# Same assay, conditions: post-emergence, 336 h, ORYSS (crop), 70 g ai/ha, 14 days after application, read-out: Visual Growth Reduction (%) 14 Days After Application ORYSS
row,SMILES,pest or weed control at 70 g/ha [%]
1,"Cc1c(-c2cc(N)c(Cl)c(C(=O)O)n2)ccc(C(F)(F)F)c1F [Compound 61, 4-amino-3-chloro-6-(3-fluoro-2-methyl-4-(trifluoromethyl)phenyl)picolinic acid]",0 to 29

# Same assay, conditions: post-emergence, 336 h, ORYSS (crop), 140 g ai/ha, 14 days after application, read-out: Visual Growth Reduction (%) 14 Days After Application ORYSS
row,SMILES,pest or weed control at 140 g/ha [%]
1,"Cc1c(-c2cc(N)c(Cl)c(C(=O)O)n2)ccc(C(F)(F)F)c1F [Compound 61, 4-amino-3-chloro-6-(3-fluoro-2-methyl-4-(trifluoromethyl)phenyl)picolinic acid]",0 to 29

# Same assay, conditions: post-emergence, 336 h, SETFA: giant foxtail (Setaria faberi), 70 g ai/ha, 14 days after application, read-out: Visual Growth Reduction (%) 14 Days After Application SETFA
row,SMILES,pest or weed control at 70 g/ha [%]
1,"Cc1c(-c2cc(N)c(Cl)c(C(=O)O)n2)ccc(C(F)(F)F)c1F [Compound 61, 4-amino-3-chloro-6-(3-fluoro-2-methyl-4-(trifluoromethyl)phenyl)picolinic acid]",45 to 59

# Same assay, conditions: post-emergence, 336 h, SETFA: giant foxtail (Setaria faberi), 140 g ai/ha, 14 days after application, read-out: Visual Growth Reduction (%) 14 Days After Application SETFA
row,SMILES,pest or weed control at 140 g/ha [%]
1,"Cc1c(-c2cc(N)c(Cl)c(C(=O)O)n2)ccc(C(F)(F)F)c1F [Compound 61, 4-amino-3-chloro-6-(3-fluoro-2-methyl-4-(trifluoromethyl)phenyl)picolinic acid]",60 to 74

# Same assay, conditions: post-emergence, 336 h, SORVU: grain sorghum (Sorghum vulgare), 70 g ai/ha, 14 days after application, read-out: Visual Growth Reduction (%) 14 Days After Application SORVU
row,SMILES,pest or weed control at 70 g/ha [%]
1,"Cc1c(-c2cc(N)c(Cl)c(C(=O)O)n2)ccc(C(F)(F)F)c1F [Compound 61, 4-amino-3-chloro-6-(3-fluoro-2-methyl-4-(trifluoromethyl)phenyl)picolinic acid]",0 to 29

# Same assay, conditions: post-emergence, 336 h, SORVU: grain sorghum (Sorghum vulgare), 140 g ai/ha, 14 days after application, read-out: Visual Growth Reduction (%) 14 Days After Application SORVU
row,SMILES,pest or weed control at 140 g/ha [%]
1,"Cc1c(-c2cc(N)c(Cl)c(C(=O)O)n2)ccc(C(F)(F)F)c1F [Compound 61, 4-amino-3-chloro-6-(3-fluoro-2-methyl-4-(trifluoromethyl)phenyl)picolinic acid]",0 to 29

# Same assay, conditions: post-emergence, 336 h, TRZSS (crop), 70 g ai/ha, 14 days after application, read-out: Visual Growth Reduction (%) 14 Days After Application TRZSS
row,SMILES,pest or weed control at 70 g/ha [%]
1,"Cc1c(-c2cc(N)c(Cl)c(C(=O)O)n2)ccc(C(F)(F)F)c1F [Compound 61, 4-amino-3-chloro-6-(3-fluoro-2-methyl-4-(trifluoromethyl)phenyl)picolinic acid]",0 to 29

# Same assay, conditions: post-emergence, 336 h, TRZSS (crop), 140 g ai/ha, 14 days after application, read-out: Visual Growth Reduction (%) 14 Days After Application TRZSS
row,SMILES,pest or weed control at 140 g/ha [%]
1,"Cc1c(-c2cc(N)c(Cl)c(C(=O)O)n2)ccc(C(F)(F)F)c1F [Compound 61, 4-amino-3-chloro-6-(3-fluoro-2-methyl-4-(trifluoromethyl)phenyl)picolinic acid]",30 to 44

# Same assay, conditions: post-emergence, 336 h, ZEAMX: maize, corn (Zea mays), 70 g ai/ha, 14 days after application, read-out: Visual Growth Reduction (%) 14 Days After Application ZEAMX
row,SMILES,pest or weed control at 70 g/ha [%]
1,"Cc1c(-c2cc(N)c(Cl)c(C(=O)O)n2)ccc(C(F)(F)F)c1F [Compound 61, 4-amino-3-chloro-6-(3-fluoro-2-methyl-4-(trifluoromethyl)phenyl)picolinic acid]",0 to 29

# Same assay, conditions: post-emergence, 336 h, ZEAMX: maize, corn (Zea mays), 140 g ai/ha, 14 days after application, read-out: Visual Growth Reduction (%) 14 Days After Application ZEAMX
row,SMILES,pest or weed control at 140 g/ha [%]
1,"Cc1c(-c2cc(N)c(Cl)c(C(=O)O)n2)ccc(C(F)(F)F)c1F [Compound 61, 4-amino-3-chloro-6-(3-fluoro-2-methyl-4-(trifluoromethyl)phenyl)picolinic acid]",0 to 29
